These results are taken from patent US20060287378A1, “Novel pyrroles and imidazoles” (priority 2003, published 2006).

The melting point is the temperature of the solid-liquid transition. By IC50 is commonly meant the concentration needed to halve the response being measured.

The subject of data set [1] is Sterol Biosynthesis in L6 Rat Myoblast. Briefly: Sterol biosynthesis in L6 rat myoblast (14C acetic acid into cholesterol). Format: cell-based. The conditions noted are these: 3 hours pre-incubation, 3 hours 14C acetic acid labeling. How it is done: C.) Protocol for Sterol Biosynthesis in L6 Rat Myoblast:
(§1) Cell culture, compounds treatment and cell labeling:
L6 rat myoblast purchased from ATCC (CRL-1458) were grown in T-150 vented culture flasks and seeded on 12-well culture plates at a density of 60,000 cells per well. The cells were grown in DMEM, (Dulbecco's Modified Eagle Medium) (Gibco, #10567-014) containing 10% heat inactivated FBS (Fetal Bovine Serum) (Gibco # 10082-139) for 72 hours until reaching confluence. The cells were pre-incubated in media with compound and 0.2% DMSO (dimethyl sulfoxide) for 3 hours and then labeled by incubating in medium containing compound, 0.2% DMSO and 1 □]Ci/per mL of ^14C acetic acid for an additional 3 hours. After labeling, the cells were washed once with 1×PBS (Gibco #14190-144) then lysed overnight at 4° C. in buffer containing 10% KOH and 78%(vol.) ethanol. Cholesterol extraction and data analysis:
Lipid ester bonds were hydrolyzed by saponification of the lysates at 60° C. for 2 hours. Sterols (including cholesterol) were extracted from saponified lysates by combining with 3 volumes of hexane and mixing by pipette 6 times. The upper organic phase solution was collected and combined with an equal volume of 1 N KOH in 50% methanol and mixed by pipette 6 times. The upper organic phase was collected in a scintilant-coated plate (Wallac #1450-501) and hexanes removed by evaporation at room temperature for 3 hours. The amount of ^14C cholesterol was quantified by scintillation counting in a Trilux 1450 plate reader (Wallac). The IC50 values were calculated from % inhibitions relative to negative controls vs. compound concentration on Microsoft excel 2000 data analysis wizard using a sigmoid inhibition curve model with formula: y=Bmax (1−(x^n/K^n+x^n))+y2
Where K is the IC50 for the inhibition curve, X is inhibitor concentration, Y is the response being inhibited and Bmax+Y2 is the limiting response as X approaches zero.

The subject of data set [2] is Sterol Biosynthesis in Rat Hepatocytes. Briefly: Sterol biosynthesis in rat hepatocytes (14C acetic acid into cholesterol). It is filed as cell-based. The following applies: Hepatocyte. How it is done: Protocol for Sterol Biosynthesis in Rat Hepatocytes:
as §1
Frozen rat hepatocytes purchased from XenoTech (cat# N400572) were seeded on 6-well collagen I coated plates at a density of 10^5 cells/per well. The cells were grown in DMEM, (Dulbecco's Modified Eagle Medium) (Gibco, #11054-020) containing 10% FBS (Fetal Bovine Serum) and 10 mM HEPES, (N-2-hydroxyethyl-piperazine-N^1-2-ethane sulfonic acid) (Gibco # 15630-080) for 24 hrs. The cells were pre-incubated with compounds for 4 hrs and then labeled by incubating in medium containing 1 uCVper mL of ^14C acetic acid for an additional 4 hrs. After labeling, the cells were washed twice with 5 mM MOPS, (3-[N-morpholino] propane sulfonic acid) solution containing 150 mM NaCl and 1 mM EDTA and collected in the lysis buffer containing 10% KOH and 80% (vol.) ethanol. Cholesterol extraction and data analysis:
In order to separate labeled cholesterol from labeled non-cholesterol lipids, the cells lysates were subject to saponification at 60° C. for 2 hrs. The lysates were then combined with 0.5 volume of H2O and 2 volumes of hexane, followed by 30 minutes of vigorous shaking. After the separation of two phases, the upper-phase solution was collected and combined with 5 volumes of scintillation cocktail. The amount of ^14C cholesterol was quantified by liquid scintillation counting. The IC50 values were calculated with GraphPad software (Prism 3.03).

Data set [3] deals with T1, HMGCoA (3-Hydroxy-3-methylglutaryl CoA) Reductase (Rattus norvegicus, UniProt P51639).
T1 construct: Male Charles River Sprague-Dawley rats were fed with 2.5% cholestyramine in rat chow diets for 5 days before sacrificing; from tissue; host or cells: liver microsomes of male Sprague-Dawley rats fed cholestyramine
T1 sequence (P51639 1-887): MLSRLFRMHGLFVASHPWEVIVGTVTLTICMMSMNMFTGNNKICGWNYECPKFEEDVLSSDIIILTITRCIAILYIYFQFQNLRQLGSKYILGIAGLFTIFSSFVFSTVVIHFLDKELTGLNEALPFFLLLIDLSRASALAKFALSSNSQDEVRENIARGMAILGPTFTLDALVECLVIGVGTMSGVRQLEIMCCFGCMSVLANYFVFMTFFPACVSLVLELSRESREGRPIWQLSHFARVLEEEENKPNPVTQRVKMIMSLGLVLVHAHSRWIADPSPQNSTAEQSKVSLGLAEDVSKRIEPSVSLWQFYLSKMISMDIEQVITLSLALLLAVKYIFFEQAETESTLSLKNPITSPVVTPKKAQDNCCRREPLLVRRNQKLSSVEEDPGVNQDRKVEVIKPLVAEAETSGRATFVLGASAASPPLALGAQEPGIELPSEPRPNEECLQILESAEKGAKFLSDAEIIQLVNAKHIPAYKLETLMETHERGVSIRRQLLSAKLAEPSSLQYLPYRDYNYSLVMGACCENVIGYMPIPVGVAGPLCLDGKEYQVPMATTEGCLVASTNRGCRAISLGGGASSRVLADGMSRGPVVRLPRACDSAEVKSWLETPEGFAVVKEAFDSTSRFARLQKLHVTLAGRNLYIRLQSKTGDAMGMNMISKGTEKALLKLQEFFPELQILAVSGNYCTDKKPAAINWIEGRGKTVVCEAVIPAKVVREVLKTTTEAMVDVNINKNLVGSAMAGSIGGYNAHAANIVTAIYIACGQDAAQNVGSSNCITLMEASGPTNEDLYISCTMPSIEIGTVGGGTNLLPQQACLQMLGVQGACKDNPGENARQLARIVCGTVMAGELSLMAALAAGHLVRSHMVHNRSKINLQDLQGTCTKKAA
Briefly: HMGCoA reductase assay with rat liver microsomes (14C-HMGCoA). It is filed as biochemical. The conditions noted are these: in vitro assay, 45 min at 37° C. How it is done: Rat Liver Microsomal Isolation Procedure:
Male Charles River Sprague-Dawley rats were fed with 2.5% cholestyramine in rat chow diets for 5 days before sacrificing. Livers were minced and homogenized in a sucrose homogenizing solution in an ice bath 10 times. Homogenates were diluted into a final volume of 200 mL, and centrifuged 15 min. with a Sorvall Centrifuge at 5° C., 10,000 rpm (12,000×G). The upper fat layer was removed and the supernatant decanted into fresh tubes. This step was repeated one more time before transferring the supernatant into ultracentrifuge tubes and centrifuged at 36,000 rpm (105,000×G) for an hour at 5° C. The resulting supernatant was discarded and the pellet was added to total of 15 mL 0.2 M KH2PO4. Pellets were homogenized gently by hand about 10 times. Samples were pooled and diluted into total of 60 mL buffer. The protein concentration of the homogenate was determined by the […] using a BCA (Bicinchoninic acid), kit from Pierce Chemical Company. 1 mL aliquots of microsomes were kept frozen in liquid nitrogen.
HMGCoA (3-Hydroxy-3-methylglutaryl CoA) Reductase Assay:
[3-^14C]-HMGCoA (57.0 mCi/mmol) was purchased from Amersham Biosciences, UK. HMGCoA, mevalonolactone, P-NADPH (P-Nicotinamide Adenine Dinucleotide Phosphate, Reduced form) were purchased from Sigma Chemical Co. AG 1-8×resin was purchased from Bio-Rad Laboratory. • 1. One μL of dimethyl sulfoxide (DMSO) or 1 μL of DMSO containing a test compound at a concentration sufficient to give a final assay concentration of between 0.1 nM to 1 mM was placed into each well of a Corning 96 well plate. A Volume of 34 µL of buffer (100 mM NaH2PO4, 10 mM Imidazole and 10 mM EDTA), (Ethylenediaminetetra acetic acid) containing with 50 µg/mL rat liver microsomes was added into each well. After incubation for 30 min. on ice, 15 µL of ^14C-HMGCoA (0.024 μCi) with 15 mM NADPH, 25 mM DTT, (Dithiothreitol) was added and incubated at 37° C. for an additional 45 min.
The reaction was terminated by the addition of 10 μL of HCl followed by 5 μL of mevalonolactone. Plates were incubated at room temperature overnight to allow lactonization of mevalonate to mevalonolactone. The incubated samples were applied to columns containing 300 μL of AG1-X8 anion exchange resin in a Corning filter plate.
The eluates were collected into Corning 96 well capture plates. Scintillation cocktail (Ultima-Flo-M) was added into each well and plates counted on a Trilux Microbeta Counter. The IC50 values were calculated with GraphPad software (Prism). Procedure: • 2. Add 1 μL DMSO or compounds into the wells according to the protocol • 3. Add 35 μL incubation buffer with the rat microsomes into each well. Incubate 30 min. at 4° C. • 4. Add 15 μL ^14C-HMGCoA. Incubate 45 min. at 37° C. • 5. Add 10 μL HCl stop reagent • 6. Add 5 μL mevelonolactone. Incubate overnight at room temperature • 7. Apply the containing into the AG 1-X8 anion exchange resin in Corning filter plate • 8. Collect the eluate into Corning capture plate • 9. Add scintillation cocktail Ultima-Flo-M • 10. Count on a Trilux Microbeta Counter μ • 11. Calculate IC50 values
In general terms: Liver microsomes are a subcellular fraction often used to study metabolism.

Each structure is given as a SMILES string. Where two headings read alike, the source gives them in different places.

Consider `CC(C)c1c(S(=O)(=O)Nc2ccccc2)c(-c2ccc(F)cc2)c(-c2ccc(F)cc2)n1CC[C@@H](O)C[C@@H](O)CC(=O)[O-].[Na+]` [Example 1P, (3R,5R)-7-[2,3-bis-(4-fluoro-phenyl)-5-isopropyl-4-phenylsulfamoyl-pyrrol-1-yl]-3,5-dihydroxy-heptanoic acid monosodium salt], for which the melting point was 130 to 134 °C (dec.).

In the case of `CC(C)c1c(C(=O)NCc2ccccc2)nc(-c2ccc(F)cc2)n1CC[C@@H](O)C[C@@H](O)CC(=O)O` [Example 4], the figures for the IC50 in data set [1], in data set [2] (Rattus norvegicus) and in data set [3] were 3070 nM, 0.42 nM and 7.9 nM, respectively.

For the compound `CC(C)c1c(S(=O)(=O)NCc2ccc(C(=O)[O-])cc2)c(-c2ccc(F)cc2)c(-c2ccc(F)cc2)n1CC[C@@H](O)C[C@@H](O)CC(=O)[O-].[Na+].[Na+]` [Example 43P], the melting point was over 250 °C.

`Cc1cc(CNC(=O)c2nc(-c3ccc(F)cc3)n(CC[C@@H](O)C[C@@H](O)CC(=O)O)c2C(C)C)no1` [Example 62]: the 50% inhibitory concentration (IC50) is 703 nM in data set [1], 0.58 nM in data set [2] (Rattus norvegicus) and 7.2 nM in data set [3].

On to `CC(C)c1c(C(=O)N2CCN(c3ccc(F)cc3F)CC2)nc(-c2ccc(F)cc2)n1CC[C@@H](O)C[C@@H](O)CC(=O)O` [Example 69], for which the IC50 in data set [1] was 159 nM; in data set [2] (Rattus norvegicus), 0.18 nM; in data set [3], 2.2 nM.

Turning to `O=C1C[C@H](O)C[C@@H](CCn2c(-c3ccc(F)cc3)nc(C(=O)NCc3ccccc3)c2C2CC2)O1` [Example 103, 5-Cyclopropyl-2-(4-fluoro-phenyl)-1-[2-((2R,4R)-4-hydroxy-6-oxo-tetrahydro-pyran-2-yl)-ethyl]-1H-imidazole-4-carboxylic acid benzylamide], the IC50 in data set [2] (cell assay, rat hepatocytes, 4 hrs pre-incubation, 4 hrs 14C acetic acid labeling, read-out: IC50) was determined as 0.088 nM; in data set [3], 50.4 nM.

For `COc1ccc(CNC(=O)c2nc(-c3ccc(F)cc3)n(CC[C@@H]3C[C@@H](O)CC(=O)O3)c2C2CC2)cc1` [Example 104, 5-Cyclopropyl-2-(4-fluoro-phenyl)-1-[2-((2R,4R)-4-hydroxy-6-oxo-tetrahydro-pyran-2-yl)-ethyl]-1H-imidazole-4-carboxylic acid 4-methoxybenzylamide], in data set [3], the midpoint of inhibition, the IC50, lay at 75.8 nM.

Consider `O=C(O)C[C@H](O)C[C@H](O)CCn1c(-c2ccc(F)cc2)nc(C(=O)NCc2ccccc2)c1C1CC1` [Example 110, Sodium: (3R,5R)-7-[4-Benzylcarbamoyl-5-cyclopropyl-2-(4-fluoro-phenyl)-imidazol-1-yl]-3,5-dihydroxy-heptanoate], for which the concentration for half-maximal inhibition (IC50) in data set [1] stood at 632 nM; in data set [2] (Rattus norvegicus) it was 0.218 nM; in data set [3], 1.38 nM.

For the compound `COc1ccc(CNC(=O)c2nc(-c3ccc(F)cc3)n(CC[C@@H](O)C[C@@H](O)CC(=O)O)c2C2CC2)cc1` [Example 111], the IC50 in data set [1] came out at 6400 nM; in data set [2] (Rattus norvegicus), 0.146 nM; in data set [3], 1.17 nM.

As to `CN(Cc1ccccc1)C(=O)c1nc(-c2ccc(F)cc2)n(CC[C@@H](O)C[C@@H](O)CC(=O)O)c1C1CC1` [Example 112], the half-inhibitory concentration (IC50) was 73500 nM in data set [1], 1.15 nM in data set [2] (Rattus norvegicus) and 8.39 nM in data set [3].

`CC(C)c1c(NC(=O)OCc2ccccc2)nc(-c2ccc(F)cc2)n1CC[C@@H](O)C[C@@H](O)CC(=O)[O-].[Na+]` [Example 137, Sodium: (3R,5R)-7-[4-benzyloxycarbonylamino-2-(4-fluoro-phenyl)-5-isopropyl-imidazol-1-yl]-3,5-dihydroxy-heptanoate sodium salt] came in with a melting point of 86 to 90 °C.
